From BindingDB's records for patent US20230295157 (Janssen Pharmaceutica, 2023)

target: Coagulation factor XI (Homo sapiens, UniProt P03951); test: Factor XIa Inhibition Assay Utilizing a Fluorophore-Quencher Pair Peptide Substrate
Source text: A fluorescence intensity (FLINT) based assay was used to monitor inhibition of Factor XIa. The peptide substrate, 5Fam-[…]-K5Tamra (purchased from New England Peptide) was chosen based on the FXI sequence. Conversion of zymogen FXI to its activated form, FXIa, occurs by proteolytic cleavage by […] at two sites, Arg146 and Arg180. The custom peptide used in this assay was based on the Arg146 cleavage site of FXI. The peptide substrate was designed with a fluorophore-quencher pair, where the fluorescence is quenched until FXIa cleaves the 8-mer peptide after the Arg residue. […] The Factor XIa FLINT assay was used with the following 5Fam-[…]-K5Tamra assay buffer: 50 mM Tris, pH 7.5, 100 mM NaCl, 5 mM CaCl2), 0.1 mg/mL BSA, 0.03% CHAPS. Assay buffer was prepared by mixing all ingredients fresh. 5Fam-[…]-K5Tamra peptide substrate was first prepared at 10 mM in 100% DMSO, then diluted to 3 mM in 100% DMSO.

Sequence of Coagulation factor XI (P03951 19-387 limits assumed): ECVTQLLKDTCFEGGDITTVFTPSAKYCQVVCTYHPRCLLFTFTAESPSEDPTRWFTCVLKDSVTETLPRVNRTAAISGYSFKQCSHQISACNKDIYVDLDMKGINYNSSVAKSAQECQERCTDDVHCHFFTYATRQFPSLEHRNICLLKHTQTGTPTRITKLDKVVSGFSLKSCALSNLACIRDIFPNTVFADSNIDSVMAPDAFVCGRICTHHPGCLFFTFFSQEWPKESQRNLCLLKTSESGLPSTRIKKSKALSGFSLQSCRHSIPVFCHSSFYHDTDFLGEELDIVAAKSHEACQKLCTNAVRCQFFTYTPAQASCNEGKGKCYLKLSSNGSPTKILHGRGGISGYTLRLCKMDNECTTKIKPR
Sequence of Coagulation factor XI (P03951 388-625 limits assumed): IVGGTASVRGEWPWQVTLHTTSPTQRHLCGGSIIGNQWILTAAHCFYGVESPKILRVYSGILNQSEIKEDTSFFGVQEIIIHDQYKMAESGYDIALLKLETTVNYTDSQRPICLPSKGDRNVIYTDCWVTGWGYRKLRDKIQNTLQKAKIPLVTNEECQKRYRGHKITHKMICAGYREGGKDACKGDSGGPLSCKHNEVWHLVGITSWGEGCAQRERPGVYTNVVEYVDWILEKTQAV

Compound	IC50 [nM]
C[C@H](CO)Oc1nccc(-c2cnc([C@@H]3CC[C@H]4CC(c5c(-n6cnnn6)ccc(Cl)c5F)=CC(=O)N43)[nH]2)c1F (relative stereo) [US20230295157, Example 169]	42.3
O=C1C=C(c2c(-n3cnnn3)ccc(Cl)c2F)C[C@H]2CC[C@@H](c3nc(-c4csc(CO)n4)c[nH]3)N12 [US20230295157, Example 22]	47.8
NC(=O)c1ccc(-c2cnc([C@@H]3CC[C@@H]4CC(c5c(-n6cnnn6)ccc(Cl)c5F)=CC(=O)N43)[nH]2)cc1F [US20230295157, Example 197]	4.1

target: Plasma kallikrein (Homo sapiens, UniProt P03952); test: Kallikrein Inhibition Assay Utilizing a Quenched AMC Peptide Substrate
Protocol: A fluorescence intensity (FLINT) based assay was used to monitor inhibition of human plasma kallikrein. The peptide substrate, Z-Gly-Pro-Arg-AMC (Purchased from Bachem; Catalog #I-1150) was chosen based on its relatively low KM for kallikrein which enables running the assay at lower substrate concentrations to control background fluorescence. The kinetic parameters for this substrate were determined by fitting titration data to the Michaelis-Menten equation yielding a KM=40 μM, kcat=0.76 s−1, and kcat/KM=18932 M−1s−1. The Kallikrein FLINT assay was used with the following Z-Gly-Pro-Arg-AMC assay buffer: 50 mM Tris, pH 7.5, 100 mM NaCl, 5 mM CaCl2), 0.1 mg/mL BSA, 0.03% CHAPS. Assay buffer was prepared by mixing all ingredients fresh. 2×Z-Gly-Pro-Arg-AMC peptide substrate was prepared by diluting 10 mM stock into 1×assay buffer for a 100 μM working concentration (50 μM final concentration). The 2×kallikrein stock solution was prepared by diluting 14.76 μM stock in 1×assay buffer for a 4 nM working stock solution (2 nM final concentration).

Sequence of Plasma kallikrein (P03952 20-390 limits assumed): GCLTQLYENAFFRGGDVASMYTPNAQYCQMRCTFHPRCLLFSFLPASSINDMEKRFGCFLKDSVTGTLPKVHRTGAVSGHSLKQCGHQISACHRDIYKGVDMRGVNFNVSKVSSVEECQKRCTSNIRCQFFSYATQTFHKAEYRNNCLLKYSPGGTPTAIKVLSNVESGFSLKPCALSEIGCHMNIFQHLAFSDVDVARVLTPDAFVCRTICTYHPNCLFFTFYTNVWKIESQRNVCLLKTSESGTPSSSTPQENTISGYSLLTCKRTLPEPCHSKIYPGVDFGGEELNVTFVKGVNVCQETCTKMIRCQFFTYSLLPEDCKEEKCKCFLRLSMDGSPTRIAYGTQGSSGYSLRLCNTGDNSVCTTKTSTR
Sequence of Plasma kallikrein (P03952 391-638 limits assumed): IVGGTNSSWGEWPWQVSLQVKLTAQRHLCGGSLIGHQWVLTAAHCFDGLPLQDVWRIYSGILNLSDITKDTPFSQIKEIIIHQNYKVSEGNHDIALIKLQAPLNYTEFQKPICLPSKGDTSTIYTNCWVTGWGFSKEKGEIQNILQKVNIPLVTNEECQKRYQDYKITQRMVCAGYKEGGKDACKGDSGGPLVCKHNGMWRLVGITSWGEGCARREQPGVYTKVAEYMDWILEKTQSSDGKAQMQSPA

Compound	IC50 [nM]
C[C@H](CO)Oc1nccc(-c2cnc([C@@H]3CC[C@H]4CC(c5c(-n6cnnn6)ccc(Cl)c5F)=CC(=O)N43)[nH]2)c1F (relative stereo) [US20230295157, Example 169]	40.1
O=C1C=C(c2c(-n3cnnn3)ccc(Cl)c2F)C[C@H]2CC[C@@H](c3nc(-c4csc(CO)n4)c[nH]3)N12 [US20230295157, Example 22]	103
NC(=O)c1ccc(-c2cnc([C@@H]3CC[C@@H]4CC(c5c(-n6cnnn6)ccc(Cl)c5F)=CC(=O)N43)[nH]2)cc1F [US20230295157, Example 197]	6
